Test results: US20240252677A1, “ONE-COMPONENT DELIVERY SYSTEM FOR NUCLEIC ACIDS” (The Trustees of the University of Pennsylvania, priority 2021, published 2024)

Experiments:
[1] = Cryo-TEM of dendrimersomes from glycerol-JDs, number of vesicle layers; assay type: physicochemical; settings: for Number of vesicle layers: 1 (count of vesicles): vesicles with 1 layer; for Number of vesicle layers: 2 (count of vesicles): vesicles with 2 layers; for Number of vesicle layers: 3 (count of vesicles): vesicles with 3 layers; for Number of vesicle layers: 4 (count of vesicles): vesicles with 4 layers; for Number of vesicle layers: 5 (count of vesicles): vesicles with 5 layers; for Number of vesicle layers: 6 (count of vesicles): vesicles with 6 layers; for lamellarity of DSs (in words) / calculated percentages of unilamellar DSs in the selected images: cryo-TEM; for calculated percentages of unilamellar DSs in the selected images: JD 1 mg mL-1 in water; for Number of vesicle layers: 7 (count of vesicles): vesicles with 7 layers; for Number of vesicle layers: 8 (count of vesicles): vesicles with 8 layers; for Number of vesicle layers: 9 (count of vesicles): vesicles with 9 layers; for Number of vesicle layers: 10 (count of vesicles): vesicles with 10 layers; for Number of vesicle layers: 11 (count of vesicles): vesicles with 11 layers; for Number of vesicle layers: 12 (count of vesicles): vesicles with 12 layers
Source text: The red numbers in FIG. 85 stand for the unilamellar while yellow numbers for multilamellar DSs. The calculated percentages of unilamellar DSs in the selected images for 2R, 2S and 2rac are 91%, 70% and 13%, respectively. Same trend was found for cryo-TEM of 1R, 1S and 1rac (FIG. 86 through FIG. 88). […] Achiral DSs are all unilamellar.
Cryogenic Transmission Electron Microscopy (Cryo-TEM). Morphologies of the Janus Dendrimer assemblies were characterized by cryo-TEM. Images were acquired on a Carl Zeiss Libra 120 microscope. Samples were prepared by plunge freezing of aqueous dispersion on plasma-treated lacey grids. The vitrified specimens were then transferred to a Gatan-910 cryoholder. The 5 images were recorded at −170° C. with an acceleration voltage of 120 kV. The concentration of JD in the aqueous solution of DSs was 1 mg mL-^1.

[2] = DLS size of dendrimersomes assembled from glycerol-JDs in water at different concentrations; assay type: physicochemical; settings: for Dh (nm): size distribution by intensity
Description: Assembly of all eight glycerol-JDs was performed by injection of their ethanol solution (50 μL) into 1 mL of Milli-Q water. The size distribution and structure of resulting DSs were analyzed by DLS (FIG. 84) and cryo-TEM. […] In a certain concentration range the size of DSs increased with the concentration of JDs injected in water or buffer. […] The dimensions of the assemblies were identical when the concentrations of the JDs in water were identical. Sizes of assemblies from mixtures of 1R and 1S in different ratios (1:3, 1:1 and 3:1), were also identical (FIG. 84). […] With the exception of the rotation of polarized light, the physical properties of enantiomers and their racemic mixtures must be identical.
Dynamic light scattering (DLS). Hydrodynamic diameters (Dh) of the self-assemblies of dendrimer molecules and their size distributions were measured on a Malvern Instruments particle sizer (Zetasizer® Nano S, Malvern Instruments, UK) equipped with 4 mW He—Ne laser (633 nm) and avalanche photodiode positioned at […] to the beam and temperature controlled cuvette holder. Experiments were performed at 25° C. in triplicate. The distribution of radius was intensity.

Row | Number of vesicle layers: 1 (count of vesicles) [1] | Number of vesicle layers: 2 (count of vesicles) [1] | Number of vesicle layers: 3 (count of vesicles) [1] | Number of vesicle layers: 4 (count of vesicles) [1] | Number of vesicle layers: 5 (count of vesicles) [1] | Number of vesicle layers: 6 (count of vesicles) [1] | PDI ([2]; JD 0.025 mg·mL−1 in water) | Dh (nm) ([2]; JD 0.025 mg·mL−1 in water) | PDI ([2]; JD 0.05 mg·mL−1 in water) | Dh (nm) ([2]; JD 0.05 mg·mL−1 in water) | PDI ([2]; JD 0.1 mg·mL−1 in water) | Dh (nm) ([2]; JD 0.1 mg·mL−1 in water) | PDI ([2]; JD 0.15 mg·mL−1 in water) | Dh (nm) ([2]; JD 0.15 mg·mL−1 in water) | PDI ([2]; JD 0.2 mg·mL−1 in water) | Dh (nm) ([2]; JD 0.2 mg·mL−1 in water) | PDI ([2]; JD 0.25 mg·mL−1 in water) | Dh (nm) ([2]; JD 0.25 mg·mL−1 in water) | PDI ([2]; JD 0.3 mg·mL−1 in water) | Dh (nm) ([2]; JD 0.3 mg·mL−1 in water) | SMILES | other results
1 | 61 | 15 | 4 | 1 | 1 | 0 | 0.455 | 82 nm | 0.336 | 87 nm | 0.197 | 110 nm | 0.195 | 124 nm | 0.175 | 135 nm | 0.202 | 140 nm | 0.190 | 148 nm | CCCCCCCCCCCCOc1cc(OCCCCCCCCCCCC)cc(C(=O)OC[C@H](COC(=O)C(C)(COC(=O)c2cc(OCCOCCOCCOC)c(OCCOCCOCCOC)c(OCCOCCOCCOC)c2)COC(=O)c2cc(OCCOCCOCCOC)c(OCCOCCOCCOC)c(OCCOCCOCCOC)c2)OC(=O)c2cc(OCCCCCCCCCCCC)cc(OCCCCCCCCCCCC)c2)c1 [Compound 1R, (3,5)-12G1-GC-(R)-BMPA-(3,4,5)-3EO-G1] | PDI ([2]; JD 0.4 mg·mL−1 in water): 0.228; Dh (nm) ([2]; JD 0.4 mg·mL−1 in water): 178 nm; PDI ([2]; JD 0.5 mg·mL−1 in water): 0.326; Dh (nm) ([2]; JD 0.5 mg·mL−1 in water): 233 nm
2 | 23 | 9 | 3 | 4 | 1 | 0 | 0.446 | 80 nm | 0.359 | 86 nm | 0.223 | 100 nm | 0.190 | 124 nm | 0.195 | 135 nm | 0.203 | 142 nm | 0.186 | 147 nm | CCCCCCCCCCCCOc1cc(OCCCCCCCCCCCC)cc(C(=O)OC[C@@H](COC(=O)C(C)(COC(=O)c2cc(OCCOCCOCCOC)c(OCCOCCOCCOC)c(OCCOCCOCCOC)c2)COC(=O)c2cc(OCCOCCOCCOC)c(OCCOCCOCCOC)c(OCCOCCOCCOC)c2)OC(=O)c2cc(OCCCCCCCCCCCC)cc(OCCCCCCCCCCCC)c2)c1 [Compound 1S, (3,5)-12G1-GC-(S)-BMPA-(3,4,5)-3EO-G1] | PDI ([2]; JD 0.4 mg·mL−1 in water): 0.258; Dh (nm) ([2]; JD 0.4 mg·mL−1 in water): 184 nm; PDI ([2]; JD 0.5 mg·mL−1 in water): 0.438; Dh (nm) ([2]; JD 0.5 mg·mL−1 in water): 229 nm
3 | 202 | 2 | 5 | 1 | 3 | 2 | 0.416 | 107 nm | 0.368 | 108 nm | 0.258 | 111 nm | 0.257 | 125 nm | 0.242 | 134 nm | 0.186 | 139 nm | 0.227 | 152 nm | CCCCCCCCCCCCOc1cc(OCCCCCCCCCCCC)cc(C(=O)OCC(C)(COC(=O)c2cc(OCCCCCCCCCCCC)cc(OCCCCCCCCCCCC)c2)C(=O)OC[C@@H](COC(=O)c2cc(OCCOCCOCCOC)c(OCCOCCOCCOC)c(OCCOCCOCCOC)c2)OC(=O)c2cc(OCCOCCOCCOC)c(OCCOCCOCCOC)c(OCCOCCOCCOC)c2)c1 [Compound 2R, (3,5)-12G1-BMPA-GC-(R)-(3,4,5)-3EO-G1] | lamellarity of DSs (in words) [1]: unilamellar DSs predominantly; calculated percentages of unilamellar DSs in the selected images [1]: 91%; Number of vesicle layers: 7 (count of vesicles) [1]: 0; Number of vesicle layers: 8 (count of vesicles) [1]: 0; Number of vesicle layers: 9 (count of vesicles) [1]: 0; Number of vesicle layers: 10 (count of vesicles) [1]: 0; Number of vesicle layers: 11 (count of vesicles) [1]: 1; Number of vesicle layers: 12 (count of vesicles) [1]: 0; PDI ([2]; JD 0.4 mg·mL−1 in water): 0.263; Dh (nm) ([2]; JD 0.4 mg·mL−1 in water): 180 nm; PDI ([2]; JD 0.5 mg·mL−1 in water): 0.497; Dh (nm) ([2]; JD 0.5 mg·mL−1 in water): 319 nm
4 | 63 | 13 | 9 | 1 | 0 | 0 | 0.465 | 106 nm | 0.422 | 107 nm | 0.291 | 112 nm | 0.212 | 119 nm | 0.203 | 128 nm | 0.223 | 132 nm | 0.235 | 153 nm | CCCCCCCCCCCCOc1cc(OCCCCCCCCCCCC)cc(C(=O)OCC(C)(COC(=O)c2cc(OCCCCCCCCCCCC)cc(OCCCCCCCCCCCC)c2)C(=O)OC[C@H](COC(=O)c2cc(OCCOCCOCCOC)c(OCCOCCOCCOC)c(OCCOCCOCCOC)c2)OC(=O)c2cc(OCCOCCOCCOC)c(OCCOCCOCCOC)c(OCCOCCOCCOC)c2)c1 [Compound 2S, (3,5)-12G1-BMPA-GC-(S)-(3,4,5)-3EO-G1] | lamellarity of DSs (in words) [1]: unilamellar DSs predominantly; calculated percentages of unilamellar DSs in the selected images [1]: 70%; Number of vesicle layers: 7 (count of vesicles) [1]: 1; Number of vesicle layers: 8 (count of vesicles) [1]: 1; Number of vesicle layers: 9 (count of vesicles) [1]: 0; Number of vesicle layers: 10 (count of vesicles) [1]: 3; Number of vesicle layers: 11 (count of vesicles) [1]: 1; Number of vesicle layers: 12 (count of vesicles) [1]: 0; PDI ([2]; JD 0.4 mg·mL−1 in water): 0.205; Dh (nm) ([2]; JD 0.4 mg·mL−1 in water): 165 nm; PDI ([2]; JD 0.5 mg·mL−1 in water): 0.295; Dh (nm) ([2]; JD 0.5 mg·mL−1 in water): 288 nm
